Where two headings read alike, the source gives them in different places.
Details: pH 6.0, approx. 20-30 mg/mL, stirred at ambient conditions for minimum 16 hours, precipitate analysed by XRPD
Description: Equilibrium solubility experiments were conducted by mixing Compound A and the solution of interest at a concentration of approximately 20-30 mg/mL (Table 1). The solution of interest contained either 50 mM L-histidine or phosphate buffer (pH: 5.8<x<6.3). Additional Compound A was added until a cloudy solution was maintained. The samples were stirred at ambient conditions for a minimum of 16 hours. At the conclusion of the solubility measurements, solutions were clarified by centrifugation. The wet precipitated material was transferred to a 96-well transmission XRPD sample plate and allowed to dry to room temperature prior to XRPD analysis.
X-ray powder diffraction patterns for the solid phases of Compound A were generated on a Philips Analytical X'Pert PRO X-ray Diffraction System with a high throughput stage. A Cu K-Alpha radiation source was used. […] The experiments were analyzed at ambient conditions.

Nc1nc2c(ncn2[C@@H]2O[C@@H]3CO[P@@](O)(=S)O[C@H]4[C@H](F)[C@H](n5cnc6c(N)ncnc65)O[C@@H]4CO[P@@](O)(=S)O[C@@H]2[C@@H]3F)c(=O)[nH]1.[Na] [Crystalline, mono-sodium salt, Monosodium salt of 2-amino-9-[(2R,5R,7R,8S,10R,12aR,14R,15S,15aR,16R)-14-(6-amino-9H-purin-9-yl)-15,16-difluoro-2,10-dihydroxy-2,10-disulfidooctahydro-12H-5,8-methanofuro [3,2-1][1,3,6,9,11,2,10]pentaoxa-diphosphacyclotetradecin-7-yl]-1,9-dihydro-6H-purin-6-one]
Compound A Terminal Phase (50 mM L-histidine buffer): Form 1
Compound A Terminal Phase (50 mM phosphate buffer): Crystalline mono-

Source: US20240218009A1, “NOVEL FORMS OF CYCLIC DINUCLEOTIDE COMPOUNDS” (Merck Sharp & Dohme LLC, priority 2021, published 2024)
